Test results taken from patent publication US7812021B2, “Pyrrolidine aryl-ether as NK3 receptor antagonists” (Hoffmann-La Roche Inc., priority 2007, dated 2010).

Biological target: T1, recombinant human NK3 receptor (Homo sapiens, UniProt P29371)
T1 construct: expressed in transfected cells; host or cells: HEK293 cells, transient expression; membranes
T1 sequence (P29371 1-465): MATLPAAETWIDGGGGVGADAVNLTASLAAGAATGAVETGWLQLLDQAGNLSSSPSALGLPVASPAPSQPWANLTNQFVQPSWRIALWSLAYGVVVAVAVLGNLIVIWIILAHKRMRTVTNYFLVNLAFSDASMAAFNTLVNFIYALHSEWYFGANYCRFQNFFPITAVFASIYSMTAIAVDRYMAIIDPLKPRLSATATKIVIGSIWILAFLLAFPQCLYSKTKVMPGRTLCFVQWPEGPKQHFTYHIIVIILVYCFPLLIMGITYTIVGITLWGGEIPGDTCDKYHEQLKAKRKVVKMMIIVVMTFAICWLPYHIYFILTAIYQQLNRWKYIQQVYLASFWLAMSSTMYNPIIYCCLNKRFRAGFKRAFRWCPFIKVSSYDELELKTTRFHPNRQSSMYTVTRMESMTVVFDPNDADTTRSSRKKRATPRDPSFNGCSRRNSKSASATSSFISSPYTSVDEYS
Experiment: [3H]SR142801 competition binding assay
Settings: membranes from HEK293 cells transiently expressing recombinant human NK3 receptor; [3H]SR142801 radioligand; Ki by Cheng-Prussoff
Experimental: [^3H]SR142801 Competition Binding Assay
hNK3 receptor binding experiment were performed using [^3H]SR142801 (Catalog No. TRK1035, specific activity: 74.0 Ci/mmol, Amersham, GE Healthcare UK limited, Buckinghamshire, UK) and membrane isolated from HEK293 cells transiently expressing recombinant human NK3 receptor. After thawing, the membrane homogenates were centrifuged at 48,000×g for 10 min at 4° C., the pellets were resuspended in the 50 mM Tris-HCl, 4 mM MnCl2, 1 μM phosphoramidon, 0.1% BSA binding buffer at pH 7.4 to a final assay concentration of 5 μg protein/well. For inhibition experiments, membranes were incubated with [^3H]SR142801 at a concentration equal to KD value of radioligand and 10 concentrations of the inhibitory compound (0.0003-10 μM) (in a total reaction volume of 500 μl) for 75 min at room temperature (RT). At the end of the incubation, membranes were filtered onto unit filter (96-well white microplate with bonded GF/C filter preincubated 1 h in 0.3% PEI+0.3% BSA, Packard BioScience, Meriden, Conn.) with a Filtermate 196 harvester (Packard BioScience) and washed 4 times with ice-cold 50 mM Tris-HCl, pH 7.4 buffer. Nonspecific binding was measured in the presence of 10 μM SB222200 for both radioligands. The radioactivity on the filter was counted (5 min) on a Packard Top-count microplate scintillation counter with quenching correction after addition of 45 μl of microscint 40 (Canberra Packard S. A., Zürich, Switzerland) and shaking for 1 h. Inhibition curves were fitted according to the Hill equation: y=100/(1+(x/IC50)^nH), where nH=slope factor using Excel-fit 4 software (Microsoft). IC50 values were derived from the inhibition curve and the affinity constant (Ki) values were calculated using the Cheng-Prussoff equation Ki=IC50/(1+[L]/KD) where [L] is the concentration of radioligand and KD is its dissociation constant at the receptor, derived from the saturation isotherm. All experiments were performed in duplicate and the mean±standard error (SEM) of the individual Ki values was calculated.

Ki	SMILES
9.6 nM	C[C@@H]1CN(C(=O)N2C[C@@H]([C@@H](C)Oc3ccc(C(F)(F)F)cc3)[C@H](c3ccc(Cl)c(Cl)c3)C2)CCN1S(C)(=O)=O (mixture of isomers) [Example 27, {(3RS,4SR)-3-(3,4-Dichloro-phenyl)-4-[(RS)-1-(4-trifluoromethyl-phenoxy)-ethyl]-pyrrolidin-1-yl}-((R)-4-methanesulfonyl-3-methyl-piperazin-1-yl)-methanone]
21.1 nM	C[C@@H](Oc1ccc(Cl)cc1)[C@@H]1CN(C(=O)N2CCN(S(C)(=O)=O)CC2)C[C@H]1c1ccc(Cl)c(Cl)c1 (mixture of isomers) [Example 36, [(3SR,4RS)-3-[(R)-1-(4-Chloro-phenoxy)-ethyl]-4-(3,4-dichloro-phenyl)-pyrrolidin-1-yl]-(4-methanesulfonyl-piperazin-1-yl)-methanone]
2 nM	C[C@@H]1CN(C(=O)N2C[C@@H]([C@@H](C)Oc3ccc(Cl)cn3)[C@H](c3ccc(Cl)c(Cl)c3)C2)CCN1S(C)(=O)=O (mixture of isomers) [Example 54, [(3SR,4RS)-3-[(RS)-1-(5-Chloro-pyridin-2-yloxy)-ethyl]-4-(3,4-dichloro-phenyl)-pyrrolidin-1-yl]-((R)-4-methanesulfonyl-3-methyl-piperazin-1-yl)-methanone]
28.8 nM	C[C@@H](Oc1ccc(C(F)(F)F)cc1)[C@@H]1CN(C(=O)N2CCN(S(C)(=O)=O)CC2)C[C@H]1c1ccc(Cl)c(Cl)c1 (racemic) [Example 16, {(3RS,4SR)-3-(3,4-Dichloro-phenyl)-4-[(RS)-1-(4-trifluoromethyl-phenoxy)-ethyl]-pyrrolidin-1-yl}-(4-methanesulfonyl-piperazin-1-yl)-methanone]
46.8 nM	C[C@H](Oc1ccc(C(F)(F)F)cc1)[C@@H]1CN(C(=O)N2CCN(S(C)(=O)=O)CC2)C[C@H]1c1ccc(Cl)c(Cl)c1 (racemic) [Example 17, {(3RS,4SR)-3-(3,4-Dichloro-phenyl)-4-[(SR)-1 (4-trifluoromethyl-phenoxy)-ethyl]-pyrrolidin-1-yl}-(4-methanesulfonyl-piperazin-1-yl)-methanone]
77.9 nM	C[C@@H](Oc1ccc(C(F)(F)F)cc1)[C@@H]1CN(C(=O)N2CCC(N(C)S(C)(=O)=O)CC2)C[C@H]1c1ccc(Cl)c(Cl)c1 (racemic) [Example 18, N-(1-{(3RS,4SR)-3-(3,4-Dichloro-phenyl)-4-[(RS)-1-(4-trifluoromethyl-phenoxy)-ethyl]-pyrrolidine-1-carbonyl}-piperidin-4-yl)-N-methyl-methanesulfonamide]
59.5 nM	C[C@@H](Oc1ccc(C(F)(F)F)cc1)[C@@H]1CN(C(=O)CN2CCC(N(C)S(C)(=O)=O)CC2)C[C@H]1c1ccc(Cl)c(Cl)c1 (racemic) [Example 20, N-[1-(2-{(3RS,4SR)-3-(3,4-Dichloro-phenyl)-4-[(RS)-1-(4-trifluoromethyl-phenoxy)-ethyl]-pyrrolidin-1-yl}-2-oxo-ethyl)-piperidin-4-yl]-N-methyl-methanesulfonamide]
58.9 nM	CC(=O)N1CCN(CC(=O)N2C[C@@H]([C@@H](C)Oc3ccc(C(F)(F)F)cc3)[C@H](c3ccc(Cl)c(Cl)c3)C2)CC1 (racemic) [Example 24, 2-(4-Acetyl-piperazin-1-yl)-1-{(3RS,4SR)-3-(3,4-dichloro-phenyl)-4-[(RS)-1-(4-trifluoromethyl-phenoxy)-ethyl]-pyrrolidin-1-yl}-ethanone]
59.7 nM	CC(=O)NC1CCN(CC(=O)N2C[C@@H]([C@@H](C)Oc3ccc(C(F)(F)F)cc3)[C@H](c3ccc(Cl)c(Cl)c3)C2)CC1 (racemic) [Example 25, N-[1-(2-{(3RS,4SR)-3-(3,4-Dichloro-phenyl)-4-[(RS)-1-(4-trifluoromethyl-phenoxy)-ethyl]-pyrrolidin-1-yl}-2-oxo-ethyl)-piperidin-4-yl]-acetamide]
79.6 nM	C[C@@H](Oc1ccc(Cl)c(Cl)c1)[C@@H]1CN(C(=O)N2CCN(S(C)(=O)=O)CC2)C[C@H]1c1ccc(Cl)c(Cl)c1 (racemic) [Example 30, [(3SR,4RS)-3-[(RS)-1-(3,4-Dichloro-phenoxy)-ethyl]-4-(3,4-dichloro-phenyl)-pyrrolidin-1-yl]-(4-methanesulfonyl-piperazin-1-yl)-methanone]
58.9 nM	Cc1ccc(O[C@H](C)[C@@H]2CN(C(=O)N3CCN(S(C)(=O)=O)CC3)C[C@H]2c2ccc(Cl)c(Cl)c2)cc1 (racemic) [Example 31, [(3RS,4SR)-3-(3,4-Dichloro-phenyl)-4-((RS)-1-p-tolyloxy-ethyl)-pyrrolidin-1-yl]-(4-methanesulfonyl-piperazin-1-yl)-methanone]
75.6 nM	C[C@@H](Oc1ccc(C#N)cc1)[C@@H]1CN(C(=O)N2CCN(S(C)(=O)=O)CC2)C[C@H]1c1ccc(Cl)c(Cl)c1 (racemic) [Example 33, 4-{(RS)-1-[(3SR,4RS)-4-(3,4-Dichloro-phenyl)-1-(4-methanesulfonyl-piperazine-1-carbonyl)-pyrrolidin-3-yl]ethoxy}-benzonitrile]
40.1 nM	C[C@@H](Oc1ccc(F)cc1)[C@@H]1CN(C(=O)N2CCN(S(C)(=O)=O)CC2)C[C@H]1c1ccc(Cl)c(Cl)c1 (racemic) [Example 34, {(3RS,4SR)-3-(3,4-Dichloro-phenyl)-4-[(RS)-1-(4-fluoro-phenoxy)-ethyl]-pyrrolidin-1-yl}-(4-methanesulfonyl-piperazin-1-yl)-methanone]
2.9 nM	C[C@@H](Oc1ccc(Cl)cn1)[C@@H]1CN(C(=O)N2CCN(S(C)(=O)=O)CC2)C[C@H]1c1ccc(Cl)c(Cl)c1 (racemic) [Example 39, [(3SR,4RS)-3-[(RS)-1-(5-Chloro-pyridin-2-yloxy)-ethyl]-4-(3,4-dichloro-phenyl)-pyrrolidin-1-yl]-(4-methanesulfonyl-piperazin-1-yl)-methanone]
49 nM	C[C@@H](Oc1ccc(F)c(Cl)c1)[C@@H]1CN(C(=O)N2CCN(S(C)(=O)=O)CC2)C[C@H]1c1ccc(Cl)c(Cl)c1 (racemic) [Example 41, [(3SR,4RS)-3-[(RS)-1-(3-Chloro-4-fluoro-phenoxy)-ethyl]-4-(3,4-dichloro-phenyl)-pyrrolidin-1-yl]-(4-methanesulfonyl-piperazin-1-yl)-methanone]
69.9 nM	C[C@@H](Oc1ncccn1)[C@@H]1CN(C(=O)N2CCN(S(C)(=O)=O)CC2)C[C@H]1c1ccc(Cl)c(Cl)c1 (racemic) [Example 42, [(3RS,4SR)-3-(3,4-Dichloro-phenyl)-4-[(RS)-1-(pyrimidin-2-yloxy)-ethyl]-pyrrolidin-1-yl}-(4-methanesulfonyl-piperazin-1-yl)-methanone]
95.4 nM	C[C@H](Oc1ccc(C#N)cc1)[C@@H]1CN(C(=O)N2CCN(S(C)(=O)=O)CC2)C[C@H]1c1ccc(Cl)c(Cl)c1 (racemic) [Example 45, 4-{(SR)-1-[(3SR,4RS)-4-(3,4-Dichloro-phenyl)-1-(4-methanesulfonyl-piperazine-1-carbonyl)-pyrrolidin-3-yl]-ethoxy}-benzonitrile]
49.7 nM	C[C@H](Oc1ccc(F)cc1)[C@@H]1CN(C(=O)N2CCN(S(C)(=O)=O)CC2)C[C@H]1c1ccc(Cl)c(Cl)c1 (racemic) [Example 46, {(3RS,4SR)-3-(3,4-Dichloro-phenyl)-4-[(SR)-1-(4-fluoro-phenoxy)-ethyl]-pyrrolidin-1-yl}-(4-methanesulfonyl-piperazin-1-yl)-methanone]
68 nM	C[C@H](Oc1ccc(Cl)cc1)[C@@H]1CN(C(=O)N2CCN(S(C)(=O)=O)CC2)C[C@H]1c1ccc(Cl)c(Cl)c1 (racemic) [Example 48, [(3SR,4RS)-3-[(SR)-1-(4-Chloro-phenoxy)-ethyl]-4 (3,4-dichloro-phenyl)-pyrrolidin-1-yl]-(4-methanesulfonyl-piperazin-1-yl)-methanone]
